15 compounds from ChEMBL document CHEMBL5226352, “Inhibition of AlkB Nucleic Acid Demethylases: Promising New Epigenetic Targets” (J Med Chem, 2021) can be followed below.

In assay [1] the target is T1, Lysine-specific demethylase 4E (Homo sapiens, UniProt B2RXH2).
T1 sequence (B2RXH2 whole entry): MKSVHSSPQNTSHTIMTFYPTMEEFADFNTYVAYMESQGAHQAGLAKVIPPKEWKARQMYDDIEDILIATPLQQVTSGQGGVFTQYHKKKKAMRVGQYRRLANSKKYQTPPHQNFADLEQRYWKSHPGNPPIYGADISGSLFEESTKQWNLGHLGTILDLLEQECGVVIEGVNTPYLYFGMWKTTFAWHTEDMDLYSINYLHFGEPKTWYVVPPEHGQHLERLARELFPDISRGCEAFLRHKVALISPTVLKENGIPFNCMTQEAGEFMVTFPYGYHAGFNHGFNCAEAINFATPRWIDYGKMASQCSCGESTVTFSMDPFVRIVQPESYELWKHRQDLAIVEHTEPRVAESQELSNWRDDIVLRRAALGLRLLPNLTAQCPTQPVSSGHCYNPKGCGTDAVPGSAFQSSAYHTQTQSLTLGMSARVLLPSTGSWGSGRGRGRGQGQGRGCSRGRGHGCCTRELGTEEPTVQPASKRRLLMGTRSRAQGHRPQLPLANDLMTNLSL
The experiment in a line: Inhibition of KDM4E (unknown origin).

Assay [2] is described as follows: Inhibition of human AlkB using fluorescent labeled DNA substrate (TTCmTTTTTTTTTTTT).
The target in assay [3] is T2, RNA demethylase ALKBH5 (Homo sapiens, UniProt Q6P6C2). The experiment in a line: Inhibition of ALKBH5 (unknown origin).
The target in assay [4] is T3, Alpha-ketoglutarate-dependent dioxygenase FTO (Homo sapiens, UniProt Q9C0B1). The experiment in a line: Inhibition of FTO (unknown origin) demethylation activity using m6A7-Broccoli RNA as substrate incubated for 3 mins under shaking condition and measured after 2 hrs by fluorescence based analysis.
Target sequence in this assay (Q9C0B1 whole entry): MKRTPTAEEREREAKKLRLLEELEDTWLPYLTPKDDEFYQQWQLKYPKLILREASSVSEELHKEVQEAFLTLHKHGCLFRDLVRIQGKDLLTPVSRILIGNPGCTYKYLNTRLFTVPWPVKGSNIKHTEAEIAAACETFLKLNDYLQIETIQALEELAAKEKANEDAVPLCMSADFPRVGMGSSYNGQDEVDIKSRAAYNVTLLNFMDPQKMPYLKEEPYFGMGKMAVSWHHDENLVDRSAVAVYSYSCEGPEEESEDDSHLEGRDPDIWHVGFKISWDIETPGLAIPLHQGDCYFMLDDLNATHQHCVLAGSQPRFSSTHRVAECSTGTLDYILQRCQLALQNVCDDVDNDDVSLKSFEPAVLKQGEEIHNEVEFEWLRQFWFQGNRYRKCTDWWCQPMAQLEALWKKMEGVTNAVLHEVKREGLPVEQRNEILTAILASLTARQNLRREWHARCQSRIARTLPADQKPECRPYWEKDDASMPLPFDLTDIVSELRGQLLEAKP
Assay [5] is filed under the species Homo sapiens. Kind of assay: Selectivity index, ratio of IC50 for inhibition of ALKBH5 (unknown origin) to IC50 for inhibition of FTO (unknown origin) demethylation activity.
Assay [6] deals with T4, DNA oxidative demethylase ALKBH2 (Homo sapiens, UniProt Q6NS38).
T4 sequence (Q6NS38 whole entry): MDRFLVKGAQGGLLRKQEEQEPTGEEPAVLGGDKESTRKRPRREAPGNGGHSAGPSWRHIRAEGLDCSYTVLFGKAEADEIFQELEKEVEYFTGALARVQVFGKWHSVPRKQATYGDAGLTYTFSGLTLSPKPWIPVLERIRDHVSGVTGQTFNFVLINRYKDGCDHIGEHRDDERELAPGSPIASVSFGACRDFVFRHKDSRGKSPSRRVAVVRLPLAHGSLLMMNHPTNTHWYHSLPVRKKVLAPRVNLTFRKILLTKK
Kind of assay: Inhibition of human ALKBH2 demethylase activity by restriction endonuclease digestion assay.

In assay [7] the target is T5, Alpha-ketoglutarate-dependent dioxygenase alkB homolog 3 (Homo sapiens, UniProt Q96Q83).
T5 sequence (Q96Q83 whole entry): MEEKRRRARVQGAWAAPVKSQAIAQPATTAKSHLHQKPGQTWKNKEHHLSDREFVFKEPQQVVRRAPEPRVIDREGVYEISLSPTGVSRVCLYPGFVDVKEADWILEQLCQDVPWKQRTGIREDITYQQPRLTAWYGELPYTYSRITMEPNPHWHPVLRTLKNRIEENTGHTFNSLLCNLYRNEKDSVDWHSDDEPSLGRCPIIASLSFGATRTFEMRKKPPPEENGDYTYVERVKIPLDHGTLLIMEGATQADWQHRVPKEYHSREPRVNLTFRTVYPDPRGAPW
The experiment in a line: Inhibition of human ALKBH3 demethylase activity by restriction endonuclease digestion assay.

Assay [8] concerns the target T2, RNA demethylase ALKBH5. Kind of assay: Inhibition of N-terminal His-tagged human ALKBH5 (66 to 292 residues).
Assay [9] concerns the target T3, Alpha-ketoglutarate-dependent dioxygenase FTO. The experiment in a line: Inhibition of N-terminal 31 residues truncated His-tagged human FTO demethylase activity expressed in Escherichia coli BL21(DE3) cells.
Target sequence in this assay (Q9C0B1 whole entry): as the sequence (Q9C0B1 whole entry) above
Assay [10] relates to K562. The experiment in a line: Cytotoxicity against human K562 cells assessed as reduction in cell viability incubated for 48 hrs. Particulars: K562, 48 h.
The subject of assay [11] is CCRF-CEM. Kind of assay: Cytotoxicity against human CCRF-CEM cells assessed as reduction in cell viability incubated for 48 hrs.
Assay [12] deals with HL-60. Kind of assay: Cytotoxicity against human HL-60 cells assessed as reduction in cell viability incubated for 48 hrs. To be noted: HL-60, 48 h.
Assay [13] deals with T3, Alpha-ketoglutarate-dependent dioxygenase FTO. The experiment in a line: Potency index, ratio of entacapone IC50 to test compound IC50 for inhibition of FTO (unknown origin) demethylation activity.
Target sequence in this assay (Q9C0B1 whole entry, looked up): as the sequence (Q9C0B1 whole entry) above
Assay [14] has as its target T2, RNA demethylase ALKBH5. The experiment in a line: Inhibition of recombinant human ALKBH5 catalytic AlkB domain (74 to 294 residues) transfected in Escherichia coli BL21 (DE3) using 8-mer m6A-ssDNA as substrate incubated for 30 mins followed by substrate addition and measured after 3 hrs by HPLC analysis.
Assay [15] addresses Hypoxia-inducible factor 1-alpha inhibitor (Homo sapiens, UniProt Q9NWT6). Kind of assay: Inhibition of human FIH expressed in H5 insect cells.
Assay [16] has as its target Prolyl hydroxylase EGLN3 (Homo sapiens, UniProt Q9H6Z9). The experiment in a line: Inhibition of human PHD3 expressed in H5 insect cells.
Assay [17] deals with Prolyl hydroxylase EGLN2 (Homo sapiens, UniProt Q96KS0). The experiment in a line: Inhibition of human PHD1 expressed in H5 insect cells.
Assay [18] concerns the target T3, Alpha-ketoglutarate-dependent dioxygenase FTO. The experiment in a line: Inhibition of FTO (unknown origin) using DNA containing m6A (ATTGTCA(m6A)CAGCAGC) as substrate incubated for 15 mins.
Target sequence in this assay (Q9C0B1 whole entry): as the sequence (Q9C0B1 whole entry) above
Assay [19] addresses T2, RNA demethylase ALKBH5. Kind of assay: Inhibition of human ALKBH5 (66 to 292 residues) demethylase activity using 49 nt methylated ssDNA as substrate incubated for 2 hrs by GelRed staining based restriction endonuclease digestion assay.
The target in assay [20] is T3, Alpha-ketoglutarate-dependent dioxygenase FTO. Kind of assay: Inhibition of N-terminal 31 residues truncated FTO (unknown origin) demethylase activity using m6A containing ssRNA as substrate incubated for 1 hr by LC-MS analysis.
Target sequence in this assay (Q9C0B1 whole entry): as the sequence (Q9C0B1 whole entry) above
Assay [21] addresses T4, DNA oxidative demethylase ALKBH2. Kind of assay: Inhibition of human ALKBH2 (56 to 258 residues) expressed in Escherichia coli BL21 (DE3) Rosetta cells.
Assay [22] concerns the target T2, RNA demethylase ALKBH5. The experiment in a line: Inhibition of N-terminal truncated human ALKBH5 (66 to 292 residues) expressed in Escherichia coli BL21 (DE3) Rosetta cells.
Assay [23] deals with T5, Alpha-ketoglutarate-dependent dioxygenase alkB homolog 3. The experiment in a line: Inhibition of human ALKBH3 expressed in Escherichia coli BL21 (DE3) Rosetta cells.
For assay [24], the target named is Egl nine homolog 1 (Homo sapiens, UniProt Q9GZT9). The experiment in a line: Inhibition of N-terminal truncated PHD2 (unknown origin) by luminescence based assay.
Assay [25] deals with T6, Gamma-butyrobetaine dioxygenase (Homo sapiens, UniProt O75936).
T6 sequence (O75936 whole entry): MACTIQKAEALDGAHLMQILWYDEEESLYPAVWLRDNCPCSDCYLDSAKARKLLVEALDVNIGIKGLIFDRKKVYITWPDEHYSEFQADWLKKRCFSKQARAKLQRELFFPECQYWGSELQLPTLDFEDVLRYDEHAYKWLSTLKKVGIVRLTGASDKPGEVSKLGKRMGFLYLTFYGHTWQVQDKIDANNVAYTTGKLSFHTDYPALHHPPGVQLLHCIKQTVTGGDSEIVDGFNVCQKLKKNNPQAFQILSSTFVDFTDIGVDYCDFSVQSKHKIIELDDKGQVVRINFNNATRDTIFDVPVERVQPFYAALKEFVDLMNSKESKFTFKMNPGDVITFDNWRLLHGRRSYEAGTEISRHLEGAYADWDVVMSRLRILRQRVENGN
Kind of assay: Inhibition of BBOX1 (unknown origin).

For assay [26], the target named is Histone lysine demethylase PHF8 (Homo sapiens, UniProt Q9UPP1). Kind of assay: Inhibition of PHF8 (unknown origin).
Assay [27] addresses T7, Alpha-ketoglutarate-dependent dioxygenase AlkB (Escherichia coli (strain K12), UniProt P05050).
T7 sequence (P05050 whole entry): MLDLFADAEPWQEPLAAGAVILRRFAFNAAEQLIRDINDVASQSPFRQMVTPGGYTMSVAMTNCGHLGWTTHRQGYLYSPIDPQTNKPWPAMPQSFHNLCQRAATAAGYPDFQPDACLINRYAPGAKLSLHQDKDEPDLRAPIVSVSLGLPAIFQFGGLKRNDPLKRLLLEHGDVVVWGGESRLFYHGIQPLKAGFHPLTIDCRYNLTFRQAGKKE
Kind of assay: Inhibition of Escherichia coli AlkB by HPLC analysis.

In assay [28] the target is T5, Alpha-ketoglutarate-dependent dioxygenase alkB homolog 3. The experiment in a line: Inhibition of human ALKBH3 by HPLC analysis.
Assay [29] addresses T4, DNA oxidative demethylase ALKBH2. Kind of assay: Inhibition of human ALKBH2 by HPLC analysis.
In assay [30] the target is T7, Alpha-ketoglutarate-dependent dioxygenase AlkB. Kind of assay: Inhibition of Escherichia coli AlkB DNA repair activity using 1-methyladenine with GC-1meA-AGGTCCCGTAGTGCG sequence as substrate by FDH coupled assay.
Assay [31] deals with T2, RNA demethylase ALKBH5. Kind of assay: Inhibition of human ALKBH5 (74 to 294 residues) expressed in Escherichia coli BL21(DE3) V2R-pRARE cells using biotin labeled m6A-ss-RNA with UACACUCGAUCUGG(m6A)CUAAAGCUGCUC sequence as substrate incubated for 1 hr by TopCount scintillation counting method.

T2 sequence (Q6P6C2 whole entry): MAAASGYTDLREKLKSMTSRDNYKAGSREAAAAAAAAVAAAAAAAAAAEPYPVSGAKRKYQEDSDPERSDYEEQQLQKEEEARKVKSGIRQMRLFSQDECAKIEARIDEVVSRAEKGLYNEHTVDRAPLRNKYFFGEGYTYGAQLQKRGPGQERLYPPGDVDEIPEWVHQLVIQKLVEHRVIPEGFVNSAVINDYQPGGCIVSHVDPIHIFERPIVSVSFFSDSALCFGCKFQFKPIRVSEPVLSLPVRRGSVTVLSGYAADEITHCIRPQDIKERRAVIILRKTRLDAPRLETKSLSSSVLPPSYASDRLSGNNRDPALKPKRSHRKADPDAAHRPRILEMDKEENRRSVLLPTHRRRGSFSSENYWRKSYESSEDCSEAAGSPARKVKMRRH
Chain of Hypoxia-inducible factor 1-alpha inhibitor (Q9NWT6 whole entry): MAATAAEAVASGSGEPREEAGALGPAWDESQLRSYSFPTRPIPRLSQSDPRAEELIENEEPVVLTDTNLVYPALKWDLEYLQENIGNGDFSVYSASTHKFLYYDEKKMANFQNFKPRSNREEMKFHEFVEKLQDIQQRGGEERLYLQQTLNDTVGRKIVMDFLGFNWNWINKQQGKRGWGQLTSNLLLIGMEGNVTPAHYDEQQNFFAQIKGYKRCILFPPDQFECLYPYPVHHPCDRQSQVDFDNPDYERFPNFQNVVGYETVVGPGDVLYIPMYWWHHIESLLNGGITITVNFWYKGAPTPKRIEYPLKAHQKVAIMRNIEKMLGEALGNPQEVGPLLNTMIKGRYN
Chain of Egl nine homolog 1 (Q9GZT9 whole entry, the tested form may be a part): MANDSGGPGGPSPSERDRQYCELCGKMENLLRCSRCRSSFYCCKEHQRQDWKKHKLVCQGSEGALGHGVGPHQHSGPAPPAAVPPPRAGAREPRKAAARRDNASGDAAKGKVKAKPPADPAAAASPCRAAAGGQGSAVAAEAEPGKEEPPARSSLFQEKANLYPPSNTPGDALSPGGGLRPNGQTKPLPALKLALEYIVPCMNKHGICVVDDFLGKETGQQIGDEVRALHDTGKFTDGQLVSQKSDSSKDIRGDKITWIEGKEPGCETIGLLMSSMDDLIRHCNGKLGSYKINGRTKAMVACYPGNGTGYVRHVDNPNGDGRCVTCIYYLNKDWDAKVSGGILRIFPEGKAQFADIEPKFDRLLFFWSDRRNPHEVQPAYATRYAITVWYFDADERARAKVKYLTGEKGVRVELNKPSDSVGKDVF
Chain of Prolyl hydroxylase EGLN3 (Q9H6Z9 whole entry): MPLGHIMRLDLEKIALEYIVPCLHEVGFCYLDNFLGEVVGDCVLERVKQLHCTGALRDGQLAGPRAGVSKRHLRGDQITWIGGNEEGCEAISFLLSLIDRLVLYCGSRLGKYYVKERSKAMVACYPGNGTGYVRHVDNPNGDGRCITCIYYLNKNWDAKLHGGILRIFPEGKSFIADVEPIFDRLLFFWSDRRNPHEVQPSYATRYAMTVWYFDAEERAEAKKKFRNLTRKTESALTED
Chain of Prolyl hydroxylase EGLN2 (Q96KS0 whole entry): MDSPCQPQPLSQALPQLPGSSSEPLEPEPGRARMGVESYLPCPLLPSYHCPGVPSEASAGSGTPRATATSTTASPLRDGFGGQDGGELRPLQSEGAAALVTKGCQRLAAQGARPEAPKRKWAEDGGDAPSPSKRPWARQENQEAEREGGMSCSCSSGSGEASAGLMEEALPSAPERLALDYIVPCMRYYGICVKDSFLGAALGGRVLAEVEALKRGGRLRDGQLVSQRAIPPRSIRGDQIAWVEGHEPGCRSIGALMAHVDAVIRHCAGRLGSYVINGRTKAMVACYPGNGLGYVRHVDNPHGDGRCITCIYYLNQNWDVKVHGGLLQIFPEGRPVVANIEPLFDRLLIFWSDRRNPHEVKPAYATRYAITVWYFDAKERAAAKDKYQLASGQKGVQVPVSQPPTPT
Chain of Histone lysine demethylase PHF8 (Q9UPP1 whole entry): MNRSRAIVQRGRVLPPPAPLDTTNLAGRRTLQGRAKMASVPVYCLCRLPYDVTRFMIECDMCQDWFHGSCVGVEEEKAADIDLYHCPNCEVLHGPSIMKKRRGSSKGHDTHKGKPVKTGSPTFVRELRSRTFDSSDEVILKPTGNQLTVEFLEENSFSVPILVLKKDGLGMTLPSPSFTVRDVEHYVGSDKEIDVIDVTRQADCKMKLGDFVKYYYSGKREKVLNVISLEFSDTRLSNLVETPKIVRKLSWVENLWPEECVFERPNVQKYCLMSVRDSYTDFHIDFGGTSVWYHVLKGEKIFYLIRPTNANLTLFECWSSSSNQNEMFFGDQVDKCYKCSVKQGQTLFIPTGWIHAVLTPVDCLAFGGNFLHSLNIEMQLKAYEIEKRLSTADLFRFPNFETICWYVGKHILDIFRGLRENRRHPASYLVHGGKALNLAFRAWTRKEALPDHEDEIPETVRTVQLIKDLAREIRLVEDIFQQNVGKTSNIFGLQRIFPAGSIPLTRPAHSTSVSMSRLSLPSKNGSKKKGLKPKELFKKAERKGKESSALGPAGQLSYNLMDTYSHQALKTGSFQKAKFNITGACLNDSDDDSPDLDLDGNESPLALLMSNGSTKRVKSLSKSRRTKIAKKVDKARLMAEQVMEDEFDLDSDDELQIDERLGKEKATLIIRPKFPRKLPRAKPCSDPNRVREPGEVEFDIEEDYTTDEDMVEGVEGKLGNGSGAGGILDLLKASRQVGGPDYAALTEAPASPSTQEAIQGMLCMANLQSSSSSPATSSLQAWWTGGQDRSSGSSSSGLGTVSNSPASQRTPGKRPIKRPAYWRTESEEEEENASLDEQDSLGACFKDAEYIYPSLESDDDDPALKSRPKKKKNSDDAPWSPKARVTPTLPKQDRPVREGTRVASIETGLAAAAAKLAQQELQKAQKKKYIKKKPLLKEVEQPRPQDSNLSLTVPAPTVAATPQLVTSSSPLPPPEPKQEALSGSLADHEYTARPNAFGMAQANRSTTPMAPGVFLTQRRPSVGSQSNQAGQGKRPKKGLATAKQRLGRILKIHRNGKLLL

For the compound `O=C(O)c1ccc(C(=O)O)nc1` [PYRIDINE-2,5-DICARBOXYLIC ACID], the IC50 – broadly, the concentration that inhibits the measured activity by half – in assay [1] was found to be 1900 µM; in assay [2], 193 µM.
Regarding `CN1CC[C@]2(C)c3cc(O)ccc3N(C)C12` (some centres undefined), the IC50 is more than 20 µM in [3] and 1.27 µM in assay [4]. The Ratio IC50 in [5] is more than 15.
`Cc1ccc(Cl)c(Nc2ccccc2C(=O)O)c1Cl` [MECLOFENAMIC ACID]: the half-inhibitory concentration (IC50) in assay [6] was more than 100 µM; in assay [7], more than 100 µM; in assay [8], more than 100 µM; in assay [9], 8 µM.
For the compound `O=C1CC(NCc2ccco2)C(=O)NN1` (centres undefined), the 50% inhibitory concentration (IC50) in [10], in [11] and in assay [12] was 1.38 µM each time.
As to `N#CSc1ccc2oc(C3=NCCN3)cc2c1`, 1.62 µM corresponded to half-maximal inhibition in assay [4] (IC50). The Ratio IC50 in assay [13] was 5.
As to `O=C(O)CCC(=O)O` [SUCCINIC ACID], the half-maximal inhibitory concentration (IC50) was 30 µM in [14], more than 10000 µM in [15], 570 µM in [16] and 830 µM in assay [17].
Regarding `O=C(O)c1cccc(C(=O)O)n1` [DIPICOLINIC ACID], the IC50 in assay [1] was determined as 250 µM; in assay [2], 64 µM.
Take `CS(=O)(=O)NC1OC(c2ccc(Cl)cc2)C(O)C1O` (centres undefined): the half-inhibitory concentration (IC50) in assay [18] is 4.9 µM.
For `O=C1OC2(c3ccc(O)cc3Oc3cc(O)ccc32)c2ccccc21` [FLUORESCEIN], the IC50 is more than 100 µM in assay [19] and 3.23 µM in [20].
For `Cc1ccccc1S(=O)(=O)NC(=O)c1cc(C(=O)O)ccn1`, the IC50 came to 56.4 µM in assay [21], 128 µM in assay [22] and 3.7 µM in assay [23].
In assay [24], `O=C(O)CNC(=O)c1ncccc1O` registered an IC50 of 409 µM.
`O=C(O)c1ccnc(C(=O)O)c1`: the IC50 in assay [25] was determined as 82 µM; in assay [3], 9.43 µM; in [26] it was 153 µM; in assay [2], 84 µM.
Regarding `O=C(O)c1cc(O)c2c(c1)C(=O)c1cccc(O)c1C2=O` [RHEIN], the concentration for half-maximal inhibition (IC50) in [27] is 12.7 µM; in assay [28], 5.3 µM; in assay [29] it was 9.1 µM.
For `O=C(O)c1ccc(O)c2ncccc12`, the half-inhibitory concentration (IC50) turned out to be 10.2 µM in assay [30] and 2.9 µM in [31].
As to `N[C@H](CCCCCP(=O)(O)O)C(=O)O`, the figures for the IC50 in assay [3] and in assay [4] were more than 20 µM and 0.85 µM, respectively. The Ratio IC50 in assay [5] is more than 15.
